Bridge positions count the residues as written; N and C are the ends. Ends that are not written are not given here. Peptide text beside a SMILES is read from it.
Tests used:
[1] = test system: TSP-1-dependent TGF-β activation; test: TSP-1-dependent TGF-β activation in PMA-differentiated THP-1 cells with 293-TGFβ Res reporter cells; assay type: cell-based; conditions: 100 μM polypeptide, 24 h; ratio to negative control group (1.00)
Protocol: In this Example, the inhibitory effects of the polypeptides on TSP-1-dependent TGF-β activation were detected using a model based on a high TSP-1 expressing cell. In the assay, THP-1 cells (American Typical Culture Collection, ATCC, TIB-20) were induced by phorbol ester (Phorbol 12-myristate 13-acetate, PMA) (Sigma, Catalog No. P1585) and differentiated into macrophage-like cells with distinct macrophage expression profiles.
The experiment was performed as follows: THP-1 cells were inoculated in a 96-well plate, and treated with 300 nM PMA for differentiation and adherence to form macrophage-like cells. 100 μM polypeptide was added (For the negative control group, an equal volume of PBS (the solvent for the polypeptide) was added, while the positive control group received an equal concentration of the polypeptide shown in SEQ ID NO: 50.) The cells were treated for 24 hours, and then a 293 reporter cell strain, 293-TGFβ Res cell strain (novoprotein, Catalog No. XCC03-1), was added for detecting TGF-β activity, and co-cultivated for 24 hours. Bio-Lite Luciferase Assay lysate comprising fluorescent substrate (Vazyme, Catalog No. DD1201-01) was added, and the fluorescent intensity was detected using a multifunctional microplate reader (TECAN, model Infinite 200 Pro). The inhibitory effect of the polypeptide on TGF-β activation was assessed by calculating the ratio of the fluorescence signal from the polypeptide-treated groups to that of the negative control group.

active TGF-β = test: Active TGF-β level in lung tissue, bleomycin (BLM) mouse lung fibrosis model; assay type: in vivo; conditions: single intratracheal dose 3 mg/kg on Day 7, lung 24 h later, BLM model group = 100.00
Description: This Example was to evaluate the inhibitory effect of polypeptides on active TGF-β level during the progression of fibrotic disease. In this Example, a mouse lung fibrosis model induced by bleomycin (BLM) was used. The BLM animal model offers advantages, including a close mimicry of the pathological features of the primary disease, ease of use, and good reproducibility. It is the most representative model for studying the mechanisms of fibrosis and is recommended for evaluating drug efficacy.
In this Example, 6 to 8-week-old male C57/6J mice weighing 18-20 g were used as subjects for the study. The experimental animals were randomized into groups, 8 animals in each group, and the expressions of pro-fibrotic factors were detected at the endpoint of the experiment (Day 8) in this model. In this example, an aerosol intratracheal metered dosing applicator (Yuyan, model YAN30012) was utilized for intratracheal administration during the modeling and drug delivery processes. The dosing was performed as follows (An Official American Thoracic Society Workshop Report: Use of Animal Models for the Preclinical Assessment of Potential Therapies for Pulmonary Fibrosis, Am J Respir Cell Mol Biol Vol 56, Iss 5, pp 667-679, May 2017): The experimental animals were anesthetized with aerosolized isoflurane (RWD, lot no. 22041701) using a small animal anesthesia machine (RWD, model R500IE). Animals in the appropriate anesthetic state were positioned supine with heads facing up and bodies tilted on an operating platform (tilted at approximately) 60°, secured by their incisors. The practitioner gently lifted the tongue with tissue forceps in the right hand, pushing it outward and upward to open the animal's lower jaw. Holding the laryngoscope (Yuyan, model SR310-RW) in the left hand, the practitioner slid its anterior leaf-shaped blade along the midline of the tongue into the oral cavity until reaching the glottis, gently pressing the body and root of the tongue upward. The needle of the drug applicator was then inserted through the mouth into the glottis alongside the laryngoscope, and 50 μL of liquid was quickly injected. On the day of modeling (Day 1), the experimental animals were randomly assigned to groups and administered a 0.7 USP/kg dose of bleomycin solution (HanHui Pharmaceutical, Batch No. 20080511) via the tracheal route to induce the model. On Day 7, each peptide-treated group received a single intratracheal dose of 50 μL peptide drug (at a dosage of 3 mg/kg), while the model group was given an equal volume of solvent (saline, Kelong, Batch No. L221062501) as a control. Twenty-four hours after drug administration, the animals were dissected to collect lung tissue, which was ground in liquid nitrogen to extract total protein from the lung tissue. The active TGF-β content in the lung tissue of mice from each group was measured using the TGF-β ELISA kit (BOSTER, catalog number EK0515). The ratio of active TGF-β content between the peptide-treated group and the model group was calculated to evaluate the effect of the peptide on active TGF-β level.

P-Smad2/3 = P-Smad2/3 content in lung tissue, BLM mouse fibrosis model; assay type: in vivo; conditions: single intratracheal dose 3 mg/kg on Day 7, lung 24 h later, BLM model group = 100.00
Description: This example aimed to evaluate the inhibitory effect of polypeptides on the TGF-β downstream signaling pathway during fibrosis progression. TGF-β intracellular signaling relies on the phosphorylation events of Smad family proteins. The increase in Smad2/3 phosphorylation levels is an important indicator that signal transduction has occurred in the TGF-β signaling pathway.
In this example, 6- to 8-week-old male C57/6J mice weighing 18-20 g were used as subjects for the study. The experimental animals were randomized into groups, eight animals in each group. In this example, intratracheal administration was performed using an aerosol intratracheal metered dosing applicator during both the modeling and drug delivery processes, as described in Example 4. On the day of modeling (Day 1), the experimental animals were randomly assigned to groups and administered a 0.7 USP/kg dose of bleomycin solution (HanHui Pharmaceutical, Batch No. 20080511) via the tracheal route to induce the model. On Day 7, each peptide-treated group received a single intratracheal dose of peptide drug at a dosage of 3 mg/kg, while the BLM model group was given an equal volume of solvent (saline) as a control. Twenty-four hours after drug administration, the animals were dissected, and the lung tissues were collected and frozen in liquid nitrogen for future use. Total protein from the lung tissue was extracted after grinding the tissue in liquid nitrogen, and the total P-Smad2/3 content in the tissue was measured by using P-Smad2/3 ELISA kit (CST, Catalog No. 12001C). The ratio of the P-Smad2/3 content between the peptide-treated group and the model group was calculated to evaluate the effect of the peptide on TGFβ signaling.

[2] = molecular target: T1, binding of TSP-1 protein to CD36, a TSP-1 receptor protein (Homo sapiens, UniProt P07996); test: ELISA: blocking of CD36 binding to TSP-1 protein; conditions: for inhibition at 100 µM: 3 h, read-out: Blocking rate (Mean, %); for inhibition at 100 µM / Blocking rate (Mean, %): 100 μM polypeptide, 0.25 μg/mL Fc-tagged CD36, blocking of CD36 binding to TSP-1
T1 construct: purchased novoprotein (TSP-1); R&D Systems (Fc-tagged CD36) CU45 (TSP-1); 1955-CD-050 (CD36-Fc)
T1 sequence (P07996 19-1170): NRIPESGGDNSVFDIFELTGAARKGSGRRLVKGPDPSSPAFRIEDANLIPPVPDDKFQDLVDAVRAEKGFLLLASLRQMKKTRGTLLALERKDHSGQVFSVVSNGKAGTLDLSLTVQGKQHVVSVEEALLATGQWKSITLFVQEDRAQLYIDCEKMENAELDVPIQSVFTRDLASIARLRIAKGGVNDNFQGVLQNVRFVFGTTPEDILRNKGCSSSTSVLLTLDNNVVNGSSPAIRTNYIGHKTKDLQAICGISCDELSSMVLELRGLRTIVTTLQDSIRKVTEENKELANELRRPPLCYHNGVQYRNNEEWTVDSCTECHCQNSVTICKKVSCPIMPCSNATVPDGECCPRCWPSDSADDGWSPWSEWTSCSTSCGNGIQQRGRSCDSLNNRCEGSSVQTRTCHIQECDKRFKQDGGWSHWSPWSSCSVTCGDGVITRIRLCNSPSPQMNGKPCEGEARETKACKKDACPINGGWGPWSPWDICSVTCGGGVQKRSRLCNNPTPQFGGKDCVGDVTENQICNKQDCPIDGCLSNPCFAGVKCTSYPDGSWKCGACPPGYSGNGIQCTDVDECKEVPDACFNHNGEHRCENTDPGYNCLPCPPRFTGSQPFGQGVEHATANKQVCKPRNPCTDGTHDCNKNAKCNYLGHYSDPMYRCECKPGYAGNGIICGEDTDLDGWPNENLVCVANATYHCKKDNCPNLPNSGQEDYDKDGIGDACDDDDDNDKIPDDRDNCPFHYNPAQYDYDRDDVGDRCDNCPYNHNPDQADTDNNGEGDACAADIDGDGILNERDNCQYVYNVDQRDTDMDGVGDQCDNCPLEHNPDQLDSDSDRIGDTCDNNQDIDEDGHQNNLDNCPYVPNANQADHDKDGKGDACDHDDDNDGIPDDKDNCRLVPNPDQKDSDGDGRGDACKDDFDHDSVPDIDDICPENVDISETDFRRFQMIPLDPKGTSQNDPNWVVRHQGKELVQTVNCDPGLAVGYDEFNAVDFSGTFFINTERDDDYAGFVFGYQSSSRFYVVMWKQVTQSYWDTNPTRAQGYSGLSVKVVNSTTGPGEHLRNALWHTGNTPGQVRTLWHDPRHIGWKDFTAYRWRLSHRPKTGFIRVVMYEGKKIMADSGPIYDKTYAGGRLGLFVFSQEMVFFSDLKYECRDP
Protocol: ELISA assay was performed to detect the ability of the polypeptides to block the binding of TSP-1 protein to CD36, a TSP-1 receptor protein. TSP-1 protein (novoprotein, Catalog No. CU45) was diluted to 2 μg/mL using 100 mM carbonate buffer and added to sample wells (100 μL/well) of a 96-well ELISA plate (Thermo, Catalog No. 437111), and incubated overnight at 4° C.; after washing the plate twice using 1×PBST wash solution, 200 μL of 1.5% BSA (Sigma, Catalog No. B2064) was added to each well, and incubated at 37° C. for 2 h; after washing the plate 3 times using 1×PBST wash solution, the analytes were added (100 μL/well, 3 replicate wells; for the control group, 0.25 μg/mL of Fc-tagged CD36 protein (R&D Systems, Catalog No. 1955-CD-050); and for the polypeptide-treated groups, a mixture containing Fc-tagged CD36 protein and polypeptide at final concentrations of 0.25 μg/mL and 100 μM, respectively), and incubated at 37° C. for 3 h. After washing the plate 5 times using 1×PBST wash solution, a 1:500 dilution solution of FITC-labeled anti-Fc-tagged antibody (Beyotime, Catalog No. A0556) was added, and incubated for 1 h at 37° C.; after washing the plate 5 times using 1×PBST wash solution, a multifunctional ELISA instrument (TECAN, model: Infinite 200 Pro) was used to detect the intensity of FITC fluorescence signal in each sample well. The ability of the polypeptides to block CD36 binding to TSP-1 protein (Table 2-1) was assessed by calculating the ratio of the fluorescence signal from the polypeptide-treated groups to that of the control group, allowing for the determination of the blocking rate of the polypeptides in inhibiting CD36 binding to TSP-1 protein, i.e., (fluorescence signal of the control group-fluorescence signal of the polypeptide-treated group)/fluorescence signal of the control group×100%. Based on the blocking rate results obtained at the single concentration and on the polypeptide molecule properties, the preferred polypeptide molecules were assayed for concentration dependence (at 0 μM, 0.5 μM, 1 μM, 5 μM, 10 μM, and 100 μM), and IC50 values of the polypeptides for blocking CD36 binding to TSP-1 protein were determined to further assess the abilities of the preferred polypeptide molecules to block the binding of CD36 to TSP-1 (Table 2-2).

Row | Compound | Mean (relative fluorescence intensity) [1] | active TGF-β content in lung tissue, ratio to model group, Mean(%) (active TGF-β; 3 mg/kg) | P-Smad2/3 content in lung tissue, ratio to model group, Mean(%) (P-Smad2/3; 3 mg/kg) | inhibition at 100 µM [2] | IC50 ([2]; concentrations 0-100 μM) | active TGF-β content in lung tissue, ratio to model group, Mean(%) (active TGF-β) | P-Smad2/3 content in lung tissue, ratio to model group, Mean(%) (P-Smad2/3) | Blocking rate (Mean, %) [2]
1 | C[C@@H]1NC(=O)[C@H](CC(=O)O)NC(=O)[C@H](CCC(N)=O)NC(=O)[C@H]([C@@H](C)O)NC(=O)[C@H](CC(N)=O)NC(=O)[C@H](CC(=O)O)NC(=O)[C@H](CCC(=O)O)NC1=O [SEQ ID NO: 45, cyclo[Gln-Asp-Ala-Glu-Asp-Asn-Thr]] (cyclo(AEDNTQD)) | 0.52 | 81.10% | 82.42% | – | – | – | – | –
2 | Ac-TQDAEDNTAS-NH2 [SEQ ID NO: 24, Ac-Thr-Gln-Asp-Ala-Glu-Asp-Asn-Thr-Ala-Ser-NH2] | 0.57 | – | – | 32.6% | 10.6 µM | 76.35% | 89.89% | –
3 | Ac-TQDAEDNTVSFLQ-NH2 [SEQ ID NO: 36, Ac-Thr-Gln-Asp-Ala-Glu-Asp-Asn-Thr-Val-Ser-Phe-Leu-Gln-NH2] | 0.83 | – | – | 23.1% | – | 77.42% | 79.00% | –
4 | Ac-TQDPEDN-NH2 [SEQ ID NO: 14, Ac-Thr-Gln-Asp-Pro-Glu-Asp-Asn-NH2] | 0.70 | – | – | 27.9% | – | 92.49% | 87.39% | –
5 | Ac-Thr-Gln-Asp-Ala-Glu-Asp-Leu-NH2 (Ac-TQDAEDL-NH2) [SEQ ID NO: 12] | – | – | – | – | – | 81.77% | 90.48% | 18.39%
6 | Ac-Thr-Gln-Asp-Pro-Ala-Glu-Asp-NH2 (Ac-TQDPAED-NH2) [SEQ ID NO: 47] | – | – | – | – | – | 83.78% | 93.25% | 19.10%
7 | Ac-Thr-Glu-Asp-Ala-Glu-Asp-Asn-NH2 (Ac-TEDAEDN-NH2) [SEQ ID NO: 09] | – | – | – | – | – | 72.26% | 89.41% | 15.87%
8 | Thr-Gln-cyclo[Asp-Ala-Glu-Asp-Asn-Lys] (TQDAEDNK; lactam 3-8) [SEQ ID NO: 42] | – | – | – | – | – | 80.59% | 85.16% | 25.68%
9 | cyclo[Thr-Gln-Asp-Pro-Glu-Asp-Asn] (TQDPEDN; cyclic peptide; MISC_FEATURE - head-to-tail backbone cyclization) [SEQ ID NO: 41] | – | – | – | – | – | 74.12% | 81.44% | 28.65%

— patent publication US20250388623A1, “PEPTIDE INHIBITOR AND USE THEREOF” (CHENGDU BRILLIANT INSPIRATION BIOTHERAPEUTICS CO., LTD, priority 2022, published 2025)
